Reference: PubChem BioAssay (NCI)
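Exposure lasted 48 hours, with cells grown in 96-well plates and compounds tested at five concentrations. TGI: concentration producing complete growth inhibition.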

Experiments:
Assay in all cases: NCI anticancer screen, dose series, 48 h
[1] = system: K-562 leukemia
[2] = system: RXF 393 renal
[3] = system: A498 renal
[4] = system: HT29 colon
[5] = system: NCI-H23 lung
[6] = system: UACC-257 melanoma
[7] = system: MALME-3M melanoma
[8] = system: M19-MEL melanoma
[9] = system: SK-MEL-2 melanoma
[10] = system: SK-OV-3 ovarian
[11] = system: XF 498 CNS
[12] = system: NCI-H522 lung
[13] = system: CCRF-CEM leukemia
[14] = system: NCI-H460 lung
[15] = system: SF-268 CNS
[16] = system: HCT-15 colon
[17] = system: KM20L2 colon
[18] = system: OVCAR-4 ovarian
[19] = system: OVCAR-5 ovarian
[20] = system: SW-620 colon
[21] = system: M14 melanoma
[22] = system: COLO 205 colon
[23] = system: SK-MEL-5 melanoma
[24] = system: U251 CNS
[25] = system: 786-0 renal
[26] = system: HOP-92 NSCLC
[27] = system: CAKI-1 renal
[28] = system: MOLT-4 leukemia
[29] = system: SF-539 CNS
[30] = system: DLD-1 colon
[31] = system: SN12C renal
[32] = system: RPMI-8226 leukemia
[33] = system: SNB-75 CNS
[34] = system: HL-60(TB) leukemia
[35] = system: A549 NSCLC
[36] = system: SK-MEL-28 melanoma
[37] = system: LOX IMVI melanoma
[38] = system: IGROV1 ovarian
[39] = system: ACHN renal
[40] = system: UACC-62 melanoma
[41] = system: SNB-19 CNS
[42] = system: HOP-18 NSCLC
[43] = system: UO-31 renal
[44] = system: DMS 273 small cell lung
[45] = system: LXFL 529 NSCLC
[46] = system: EKVX NSCLC
[47] = system: TK-10 renal
[48] = system: OVCAR-8 ovarian
[49] = system: SF-295 CNS
[50] = system: OVCAR-3 ovarian
[51] = system: HCT-116 colon
[52] = system: DMS 114 small cell lung
[53] = system: HCC-2998 colon
[54] = system: KM12 colon
[55] = system: NCI-H226 lung
[56] = system: HOP-62 NSCLC
[57] = system: SNB-78 CNS

Measured: TGI

O=C(O)CNS(=O)(=O)c1ccc(NC(=O)c2ccccc2[N+](=O)[O-])cc1
not listed: [49] | [50] | [51] | [52] | [53] | [54] | [55] | [56] | [57]
> 100 µM: all other assays above

C/C(=N\OCC(O)CNC(C)C)c1ccc2c(c1)NC(=O)CS2 (stereo not given)
not listed: [27] | [32] | [34] | [38] | [44]
> 100 µM: all other assays above
